Among the data in ChEMBL document CHEMBL2331163, “Enhancement of the water solubility of flavone glycosides by disruption of molecular planarity of the aglycone moiety” (J Nat Prod, 2013) are logP and solubility values, retold here.

Broadly, the logP is a log measure of how a compound divides between an organic and an aqueous phase. Low readings indicate a more hydrophilic compound, high ones a more lipophilic compound. For orientation: solubility means how much of the substance goes into solution per volume. Low readings indicate little dissolved substance, high ones much dissolved substance.

Series [1] in a line: Lipophilicity, log P of the compound. The class given is physicochemical. The following applies: octanol/water.
Series [2] is described as follows: Aqueous solubility of the compound in water after 2 days by HPLC analysis. Type of series: physicochemical.

Molecules are shown by their SMILES. In brackets after ≈: the same amount, converted by molar mass.

In turn, `COc1ccc(-c2oc3cc(O[C@@H]4O[C@H](CO[C@@H]5O[C@@H](C)[C@H](O)[C@@H](O)[C@H]5O)[C@@H](O)[C@H](O)[C@H]4O)cc(O)c3c(=O)c2Cl)cc1O` yielded a logP in series [1] of 0.44. For the same compound, the solubility at 48 h in series [2] was 231 mg/mL (≈ 359 mM).
In series [1], `C[C@@H]1O[C@@H](O[C@H]2[C@H](Oc3cc(O)c4c(=O)c(Br)c(-c5ccc(O)cc5)oc4c3)O[C@H](CO)[C@@H](O)[C@@H]2O)[C@H](O)[C@H](O)[C@H]1O` displayed a logP of 0.93. Further, the solubility at 48 h in series [2] is more than 100 mg/mL.
For `C[C@@H]1O[C@@H](O[C@H]2[C@H](Oc3cc(O)c4c(=O)cc(-c5ccc(O)cc5)oc4c3)O[C@H](CO)[C@@H](O)[C@@H]2O)[C@H](O)[C@H](O)[C@H]1O` [RHOIFOLIN], in that order: 0.71 and 0.114 mg/mL (≈ 0.197 mM).
The matching figures for `COc1ccc(-c2oc3cc(O[C@@H]4O[C@H](CO[C@@H]5O[C@@H](C)[C@H](O)[C@@H](O)[C@H]5O)[C@@H](O)[C@H](O)[C@H]4O)cc(O)c3c(=O)c2Br)cc1`: 1.17 and 13.8 mg/mL (≈ 20.6 mM).
In series [1], `COc1ccc(-c2oc3cc(O[C@@H]4O[C@H](CO[C@@H]5O[C@@H](C)[C@H](O)[C@@H](O)[C@H]5O)[C@@H](O)[C@H](O)[C@H]4O)cc(O)c3c(=O)c2O)cc1O` returned a logP of 0.06. For the same compound, the solubility at 48 h in series [2] came out at 0.0056 mg/mL (≈ 0.00897 mM).
The matching figures for `COc1ccc(-c2oc3cc(O[C@@H]4O[C@H](CO[C@@H]5O[C@@H](C)[C@H](O)[C@@H](O)[C@H]5O)[C@@H](O)[C@H](O)[C@H]4O)cc(O)c3c(=O)c2Br)cc1O`: 0.61 and 214 mg/mL (≈ 311 mM).
For `COc1ccc(-c2cc(=O)c3c(O)cc(O[C@@H]4O[C@H](CO[C@@H]5O[C@@H](C)[C@H](O)[C@@H](O)[C@H]5O)[C@@H](O)[C@H](O)[C@H]4O)cc3o2)cc1` [ACACIIN], in that order: 0.84 and 0.0046 mg/mL (≈ 0.00776 mM).
